US8871756B2 (Hoffmann-La Roche Inc., priority 2011, dated 2014)

tested on: RSV Long strain; test: Viral cytopathic effect (CPE) assay, anti-RSV activity; assay type: cell-based, Respiratory Syncytial Virus; conditions: human respiratory syncytial virus, 144 h, RSV Long strain (ATCC); cell viability after 6 days, Cell Counting kit-8
Procedure, shortened: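 Cells (6×10^3/well, DMEM with 10% FBS) were infected next day with RSV Long strain, at a dose giving approximately 80–90% CPE, alongside serial half-log compound dilutions. Viability was read after 6 days by CCK-8 absorbance at 450 nm (reference 630 nm), and EC50 was derived from it.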

Row | Structure (SMILES) | EC50 [µM]
1 | Cc1ccc2nc(N3CCC(F)(F)c4ccccc4C3)cc(NCCOCCN)c2c1 [Example 110-2, N-[2-(2-Aminoethoxy)ethyl]-2-(5,5-difluoro-1,3,4,5-tetrahydro-2H-2-benzazepin-2-yl)-6-methylquinolin-4-amine] | 2.61
2 | CNCCNc1cc(N2CCC(F)(F)c3ccccc3C2)nc2ccc(C)cc12 [Example 110-3, N-[2-(5,5-Difluoro-1,3,4,5-tetrahydro-2H-2-benzazepin-2-yl)-6-methylquinolin-4-yl]-N′-methylethane-1,2-diamine] | 0.161
3 | Cc1ccc2nc(N3CCC(F)(F)c4ccccc4C3)cc(NCCN3CCNCC3)c2c1 [Example 110-7, 2-(5,5-Difluoro-1,3,4,5-tetrahydro-2H-2-benzazepin-2-yl)-6-methyl-N-[2-(piperazin-1-yl)ethyl]quinolin-4-amine] | 1.18
4 | Cc1ccc2nc(N3CCC(F)(F)c4ccccc4C3)cc(NCC(C)N)c2c1 (stereo not shown) [Example 110-8, N^˜1^˜-[2-(5,5-Difluoro-1,3,4,5-tetrahydro-2H-2-benzazepin-2-yl)-6-methylquinolin-4-yl]propane-1,2-diamine] | 0.081
5 | Cc1ccc2nc(N3CCC(F)(F)c4ccccc4C3)cc(N[C@H]3CC[C@@H](N)CC3)c2c1 [Example 110-9, cis-N-[2-(5,5-Difluoro-1,3,4,5-tetrahydro-2H-2-benzazepin-2-yl)-6-methylquinolin-4-yl]cyclohexane-1,4-diamine] | 1.37
6 | Cc1ccc2nc(N3CCC(F)(F)c4ccccc4C3)cc(NC3CCNC3)c2c1 (stereo not shown) [Example 110-10] | 0.099
7 | Cc1ccc2nc(N3CCC(F)(F)c4ccccc4C3)cc(N(CCO)CCO)c2c1 [Example 110-11, 2,2′-{[2-(5,5-Difluoro-1,3,4,5-tetrahydro-2H-2-benzazepin-2-yl)-6-methylquinolin-4-yl]imino}diethanol] | 6.75
8 | Cc1ccc2nc(N3CCC(F)(F)c4ccccc4C3)cc(N3CCN(C)CC3)c2c1 [Example 110-13, 5,5-Difluoro-2-[6-methyl-4-(4-methylpiperazin-1-yl)quinolin-2-yl]-2,3,4,5-tetrahydro-1H-2-benzazepine] | 3.68
9 | CCNC(=O)Nc1cc(N2CCC(F)(F)c3ccccc3C2)nc2ccc(C)cc12 [Example 110-14] | 0.648
10 | Cc1ccc2nc(N3CCC(F)(F)c4ccccc4C3)cc(N3CCNCC3)c2c1 [Example 111-1, 5,5-Difluoro-2-[6-methyl-4-(piperazin-1-yl)quinolin-2-yl]-2,3,4,5-tetrahydro-1H-2-benzazepine] | 2.01
11 | Cc1ccc2nc(N3CCC(F)(F)c4ccccc4C3)cc(N3CCCNCC3)c2c1 [Example 111-2, 2-[4-(1,4-Diazepan-1-yl)-6-methylquinolin-2-yl]-5,5-difluoro-2,3,4,5-tetrahydro-1H-2-benzazepine] | 1.34
12 | Cc1ccc2nc(N3CCC(F)(F)c4ccccc4C3)cc(N(C)CCN)c2c1 [Example 111-3, N-[2-(5,5-Difluoro-1,3,4,5-tetrahydro-2H-2-benzazepin-2-yl)-6-methylquinolin-4-yl]-N-methylethane-1,2-diamine] | 0.0768
13 | Cc1ccc2nc(N3CCC(F)(F)c4ccccc4C3)cc(N3CCC(N)C3)c2c1 (stereo not shown) [Example 111-4, 1-[2-(5,5-Difluoro-1,3,4,5-tetrahydro-2H-2-benzazepin-2-yl)-6-methylquinolin-4-yl]pyrrolidin-3-amine] | 0.066
14 | Cc1ccc2nc(N3CCC(F)(F)c4ccccc4C3)cc(NC3CCCC(N)C3)c2c1 (stereo not shown) [Example 111-7, N-[2-(5,5-Difluoro-1,3,4,5-tetrahydro-2H-2-benzazepin-2-yl)-6-methylquinolin-4-yl]cyclohexane-1,3-diamine] | 0.873

Now from value to compound:

Row | EC50 [µM] | Structure (SMILES)
15 | 0.89 | COC(=O)c1ccc2nc(N3CCS(=O)(=O)c4ccccc4C3)cc(NCC3(CN)COC3)c2c1 [Example 104, Methyl 4-({[3-(aminomethyl)oxetan-3-yl]methyl}amino)-2-(1,1-dioxido-2,3-dihydro-1,4-benzothiazepin-4(5H)-yl)quinoline-6-carboxylate]
16 | 1.08 | NCC1(CNc2cc(N3CCS(=O)(=O)c4ccccc4C3)nc3ccc(C(=O)O)cc23)COC1 [Example 105, 4-({[3-(Aminomethyl)oxetan-3-yl]methyl}amino)-2-(1,1-dioxido-2,3-dihydro-1,4-benzothiazepin-4(5H)-yl)quinoline-6-carboxylic acid]
17 | 0.002 | NCC1(CNc2cc(N3CCS(=O)(=O)c4ccccc4C3)nc3ccc(CO)cc23)COC1 [Example 106, [4-({[3-(Aminomethyl)oxetan-3-yl]methyl}amino)-2-(1,1-dioxido-2,3-dihydro-1,4-benzothiazepin-4(5H)-yl)quinolin-6-yl]methanol]
18 | 0.001 | [2H]C([2H])([2H])c1ccc2nc(N3CC[S+]([O-])c4ccccc4C3)nc(NCC3(CN)COC3)c2c1 (stereo not shown) [Example 107, N-{[3-(Aminomethyl)oxetan-3-yl]methyl}-6-trideuteriomethyl-2-(1-oxido-2,3-dihydro-1,4-benzothiazepin-4(5H)-yl)quinazolin-4-amine]
19 | 0.488 | NCC1(CNc2nc(N3CC[S+]([O-])c4ccccc4C3)nc3ccc(C(=O)O)cc23)COC1 (stereo not shown) [Example 108-1, 4-({[3-(Aminomethyl)oxetan-3-yl]methyl}amino)-2-(1-oxido-2,3-dihydro-1,4-benzothiazepin-4(5H)-yl)quinazoline-6-carboxylic acid]
20 | 2.47 | NCC1(CNc2nc(N3CCS(=O)(=O)c4ccccc4C3)nc3ccc(C(=O)O)cc23)COC1 [Example 108-2, 4-({[3-(Aminomethyl)oxetan-3-yl]methyl}amino)-2-(1,1-dioxido-2,3-dihydro-1,4-benzothiazepin-4(5H)-yl)quinazoline-6-carboxylic acid]
21 | 0.00088 | NCC1(CNc2nc(N3CC[S+]([O-])c4ccccc4C3)nc3ccc(CO)cc23)COC1 (stereo not shown) [Example 109-1, [4-({[3-(Aminomethyl)oxetan-3-yl]methyl}amino)-2-(1-oxido-2,3-dihydro-1,4-benzothiazepin-4(5H)-yl)quinazolin-6-yl]methanol]
22 | 0.0015 | NCC1(CNc2nc(N3CCS(=O)(=O)c4ccccc4C3)nc3ccc(CO)cc23)COC1 [Example 109-2, [4-({[3-(Aminomethyl)oxetan-3-yl]methyl}amino)-2-(1,1-dioxido-2,3-dihydro-1,4-benzothiazepin-4(5H)-yl)quinazolin-6-yl]methanol]
23 | 0.017 | Cc1ccc2nc(N3CCC(F)(F)c4ccccc4C3)cc(NCC3(N)COC3)c2c1 [Example 110-1, N-[(3-Aminooxetan-3-yl)methyl]-2-(5,5-difluoro-1,3,4,5-tetrahydro-2H-2-benzazepin-2-yl)-6-methylquinolin-4-amine]
24 | 0.06 | Cc1ccc2nc(N3CCC(F)(F)c4ccccc4C3)cc(NCC(O)CN)c2c1 (stereo not shown) [Example 110-4, 1-Amino-3-{[2-(5,5-difluoro-1,3,4,5-tetrahydro-2H-2-benzazepin-2-yl)-6-methylquinolin-4-yl]amino}propan-2-ol]
25 | 1.66 | Cc1ccc2nc(N3CCC(F)(F)c4ccccc4C3)cc(NCC(O)CO)c2c1 (stereo not shown) [Example 110-5, 3-{[2-(5,5-Difluoro-1,3,4,5-tetrahydro-2H-2-benzazepin-2-yl)-6-methylquinolin-4-yl]amino}propane-1,2-diol]
26 | 4.28 | Cc1ccc2nc(N3CCC(F)(F)c4ccccc4C3)cc(NCCCO)c2c1 [Example 110-6, 3-{[2-(5,5-Difluoro-1,3,4,5-tetrahydro-2H-2-benzazepin-2-yl)-6-methylquinolin-4-yl]amino}propan-1-ol]
27 | 0.072 | Cc1ccc2nc(N3CCC(F)(F)c4ccccc4C3)cc(NCC(C)(C)N)c2c1 [Example 110-12, N˜1˜-[2-(5,5-Difluoro-1,3,4,5-tetrahydro-2H-2-benzazepin-2-yl)-6-methylquinolin-4-yl]-2-methylpropane-1,2-diamine]
28 | 0.004 | Cc1ccc2nc(N3CCC(F)(F)c4ccccc4C3)cc(NCC3(CN)COC3)c2c1 [Example 110-15, N-{[3-(Aminomethyl)oxetan-3-yl]methyl}-2-(5,5-difluoro-1,3,4,5-tetrahydro-2H-2-benzazepin-2-yl)-6-methylquinolin-4-amine]
29 | 1.64 | Cc1ccc2nc(N3CCC(F)(F)c4ccccc4C3)cc(NCCO)c2c1 [Example 111-5, 2-{[2-(5,5-Difluoro-1,3,4,5-tetrahydro-2H-2-benzazepin-2-yl)-6-methylquinolin-4-yl]amino}ethanol]
30 | 0.062 | Cc1ccc2nc(N3CCC(F)(F)c4ccccc4C3)cc(NCCN)c2c1 [Example 111-6, N-[2-(5,5-Difluoro-1,3,4,5-tetrahydro-2H-2-benzazepin-2-yl)-6-methylquinolin-4-yl]ethane-1,2-diamine]
31 | 0.283 | Cc1ccc2nc(N3CCC(F)(F)c4ccccc4C3)cc(NCCN(C)C)c2c1 [Example 111-8, N′-[2-(5,5-Difluoro-1,3,4,5-tetrahydro-2H-2-benzazepin-2-yl)-6-methylquinolin-4-yl]-N,N-dimethylethane-1,2-diamine]
32 | 0.047 | Cc1ccc2nc(N3CCC(F)(F)c4ccccc4C3)cc(NCCCN)c2c1 [Example 111-9, N-[2-(5,5-Difluoro-1,3,4,5-tetrahydro-2H-2-benzazepin-2-yl)-6-methylquinolin-4-yl]propane-1,3-diamine]
33 | 0.107 | Cc1ccc2nc(N3CCC(F)(F)c4ccccc4C3)cc(NCCCCN)c2c1 [Example 111-10, N-[2-(5,5-Difluoro-1,3,4,5-tetrahydro-2H-2-benzazepin-2-yl)-6-methylquinolin-4-yl]butane-1,4-diamine]
34 | 3.74 | Cc1ccc2nc(N3CCC(F)(F)c4ccccc4C3)cc(NCC3(CN)CS(=O)(=O)C3)c2c1 [Example 112-1, N-{[3-(Aminomethyl)-1,1-dioxidothietan-3-yl]methyl}-2-(5,5-difluoro-1,3,4,5-tetrahydro-2H-2-benzazepin-2-yl)-6-methylquinolin-4-amine]
